Columns and labels:
Acetylcholinesterase = Acetylcholinesterase (Electrophorus electricus, UniProt O42275)
Description: inhibition of electric eel AChE by Ellman's method

Cholinesterase = Cholinesterase (Equus caballus, UniProt P81908)
Cholinesterase, sequence (P81908 whole entry): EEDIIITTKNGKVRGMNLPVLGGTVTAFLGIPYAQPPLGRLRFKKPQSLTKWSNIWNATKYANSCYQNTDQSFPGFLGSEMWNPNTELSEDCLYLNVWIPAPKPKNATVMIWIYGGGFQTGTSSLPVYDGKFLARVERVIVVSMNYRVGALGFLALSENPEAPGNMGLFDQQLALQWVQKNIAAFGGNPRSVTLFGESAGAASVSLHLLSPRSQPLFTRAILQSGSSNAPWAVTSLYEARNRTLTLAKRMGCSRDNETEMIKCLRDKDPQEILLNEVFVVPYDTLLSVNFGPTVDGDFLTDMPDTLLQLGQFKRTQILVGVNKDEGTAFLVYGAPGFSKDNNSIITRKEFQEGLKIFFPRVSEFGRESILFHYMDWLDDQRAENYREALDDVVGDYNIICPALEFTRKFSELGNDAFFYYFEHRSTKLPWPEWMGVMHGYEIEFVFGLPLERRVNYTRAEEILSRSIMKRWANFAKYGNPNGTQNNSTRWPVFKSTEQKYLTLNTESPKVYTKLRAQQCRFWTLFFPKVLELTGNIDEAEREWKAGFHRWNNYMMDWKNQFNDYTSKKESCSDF
Description: inhibition of equine serum BuChE by Ellman's method

Acetylcholinesterase, sequence (O42275 whole entry): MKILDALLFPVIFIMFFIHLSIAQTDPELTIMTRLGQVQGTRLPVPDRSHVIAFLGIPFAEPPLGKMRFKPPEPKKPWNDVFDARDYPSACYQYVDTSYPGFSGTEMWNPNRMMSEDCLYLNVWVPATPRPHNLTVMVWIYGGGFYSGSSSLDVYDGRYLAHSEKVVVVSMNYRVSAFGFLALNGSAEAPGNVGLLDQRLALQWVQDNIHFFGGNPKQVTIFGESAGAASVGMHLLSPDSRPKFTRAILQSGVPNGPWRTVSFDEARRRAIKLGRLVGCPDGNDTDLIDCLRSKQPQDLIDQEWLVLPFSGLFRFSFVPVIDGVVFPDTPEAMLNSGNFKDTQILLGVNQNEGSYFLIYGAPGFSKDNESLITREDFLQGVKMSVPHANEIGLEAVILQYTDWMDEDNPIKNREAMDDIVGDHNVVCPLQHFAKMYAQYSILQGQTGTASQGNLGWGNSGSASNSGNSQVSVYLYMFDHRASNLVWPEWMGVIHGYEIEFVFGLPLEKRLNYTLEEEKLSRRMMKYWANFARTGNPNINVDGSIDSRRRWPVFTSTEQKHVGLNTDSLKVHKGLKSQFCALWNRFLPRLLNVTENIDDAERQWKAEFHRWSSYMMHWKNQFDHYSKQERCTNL

SMILES	IC50 (Acetylcholinesterase)	IC50 (Cholinesterase)
O=C(CCN1CCCC1)Nc1ccc2nc3n(c(=O)c2c1)CCc1c-3[nH]c2ccccc12	29.2 nM	845 nM
O=C(CN1CCCC1)Nc1ccc2ncn(CCc3c[nH]c4ccccc34)c(=O)c2c1	4040 nM	25900 nM
O=C(CN1CCCCC1)Nc1ccc2ncn(CCc3c[nH]c4ccccc34)c(=O)c2c1	1520 nM	13000 nM
CCN(CC)CC(=O)Nc1ccc2nc3n(c(=O)c2c1)CCc1c-3[nH]c2ccccc12	372 nM	17600 nM
O=C(CCN1CCCCC1)Nc1ccc2nc3n(c(=O)c2c1)CCc1c-3[nH]c2ccccc12	21.4 nM	2110 nM
CCN(CC)CC(=O)Nc1ccc2nc3c4[nH]c5ccccc5c4ccn3c(=O)c2c1	57.1 nM	11400 nM
O=C(CN1CCCC1)Nc1ccc2nc3c4[nH]c5ccccc5c4ccn3c(=O)c2c1	23.6 nM	428 nM
O=C(CN1CCCC1)Nc1ccc2nc3n(c(=O)c2c1)CCc1c-3[nH]c2ccccc12	131 nM	696 nM
O=C(CN1CCCCC1)Nc1ccc2nc3n(c(=O)c2c1)CCc1c-3[nH]c2ccccc12	111 nM	33000 nM
CCN(CC)CCC(=O)Nc1ccc2nc3n(c(=O)c2c1)CCc1c-3[nH]c2ccccc12	80.2 nM	2850 nM
O=C(CN1CCCCC1)Nc1ccc2nc3c4[nH]c5ccccc5c4ccn3c(=O)c2c1	10.1 nM	5430 nM
CCN(CC)CC(=O)Nc1ccc2ncn(CCc3c[nH]c4ccccc34)c(=O)c2c1	7680 nM	41600 nM

From ChEMBL document CHEMBL1157030 (Eur J Med Chem, 2010)
